Test results taken from ChEMBL document CHEMBL1141805, “Isolation of 1-Methylherbipoline Salts of Halisulfate-1 and of Suvanine as Serine Protease Inhibitors from a Marine Sponge, Coscinoderma mathewsi” (J Nat Prod, 1998).

How the values were obtained:
[1] = Inhibition of trypsin
Prothrombin = Prothrombin (Homo sapiens, UniProt P00734)

| IC50 [1] [mg/L] | IC50 (Prothrombin) [µM] | SMILES |
| --- | --- | --- |
| 2 | 62.6 | C/C(=C\Cc1cc(O)ccc1O)CCC[C@@H](C)[C@@H](C[C@@H]1CCC[C@H]2C(C)(C)CCC[C@@]12C)OS(=O)(=O)[O-].[Na+] [HALISULPHATESODIUM] |
| 23 | 47.7 | CC1(C)CCC[C@H]2[C@H]1CC[C@@]1(C)[C@@H]2CC/C(=C\OS(=O)(=O)[O-])[C@@H]1CCc1ccoc1.C[N+](C)=C(N)N |
| 27 | 19.6 | CC1(C)CCC[C@H]2[C@H]1CC[C@@]1(C)[C@@H]2CC/C(=C\OS(=O)(=O)[O-])[C@@H]1CCc1ccoc1.[Na+] |
